Assay results taken from patent publication US20230263762A1, “COMPOSITION AND METHOD FOR TREATING INFECTIONS” (priority 2020, published 2023).

Assays:
[1] = test system: SARS-CoV-2 (USA-WA1/2020 strain); assay: Direct injection into viral suspension, plaque assay on Vero E6 cells; type: cell-based; details: for reduction of viral burden by individual components: 1.4 and 3.9 µls propionic acid, 0.6 and 1.1 µls isoamyl hexanoates; for decline in viral burden: 360 mins post-addition
SARS-CoV-2 = assay: Direct injection of Sx mixture or its components into virus suspension, Vero E6 plaque assay; type: cell-based; details: for activity of the component alone: direct injection (FIGS. 20 and 21)
[2] = biological target: RBD of the SARS-CoV-2 spike protein to ACE2 (Severe acute respiratory syndrome coronavirus 2, UniProt P0DTC2); details: cited from earlier work
[3] = propionic acid alone, direct injection

Compound | reduction of viral burden by individual components [1] | decline in viral burden ([1]; 1.4 µls alone) | decline in viral burden ([1]; 3.9 µls alone) | time to undetectable levels of virus ([1]; 7.7 µl alone, direct injection) | time to undetectable viral burden ([1]; 15.4 µls alone, direct injection) | EC50 volume over the entire study ([1]; direct injection, entire 360 min study (AUC of viral burden-time), 37° C.) | reduction in activity of the virus (SARS-CoV-2; acid alone at 3.9 µL) | activity of the component alone (SARS-CoV-2) | time to complete inactivation of the virus (SARS-CoV-2; propionic acid alone at 7.7 µL) | volume of acid necessary for relative immediate inactivation of the virus (SARS-CoV-2; [3]) | volume of acid necessary to get any appreciable activity (SARS-CoV-2; [3]) | reduction of the binding affinity of RBD to ACE2 ([2]; addition of peptide to SARS-CoV-2) | reduction of virus activity ([2]; peptide added to the virus) | suppression of SARS-CoV-2 replication, component alone ([1]; direct injection, all treatment arms (FIG. 7B)) | reduction in activity of the virus (SARS-CoV-2; esters alone (1.1 µL), at about 100 min) | reduction in virus activity (SARS-CoV-2; esters alone, highest concentration of 4.6 µL, over 300 minutes) | general reduction in virus activity (SARS-CoV-2; esters alone, within about 30 min, over the range of concentrations tested)
CCC(=O)O [propionic acid] | minimal reduction of viral burden | 0.29 log10 PFU/ml | 0.98 log10 PFU/ml | 240 min | 15 min | 6.2 µls | about 0.5 log | only has marginal biological activity | 220 min | at least 15.4 µL | up to 7.7 µL | – | – | – | – | – | –
GluGluLeuGlu | – | – | – | – | – | – | – | – | – | – | – | 34% | 34% | – | – | – | –
isoamyl hexanoates | minimal reduction of viral burden | – | – | – | – | – | – | no lasting activity | – | – | – | – | – | substantially less effective | ~1 log | 1 order of magnitude | ~1 log
